Data: patent publication US9469613B2, “(N-(cyanomethyl)-4-(2-(4-morpholinophenylamino)pyrimidin-4-yl)benzamide” (Gilead Sciences, Inc., priority 2014, dated 2016)

Test: Relative bioavailability of CYT-0387 tablet vs capsule, food and omeprazole effect, healthy subjects
Type: in vivo, human
Details: from 100 to 800 mg
Procedure: CYT-0387 is a selective small molecule inhibitor of Janus kinase 1 and 2 (JAK1/JAK2), and is currently under investigation to treat myelofibrosis. In a Phase 1/2 study in myelofibrosis patients, 300 mg CYT-0387 capsule once daily was selected as Phase 3 dose based on a favorable benefit:risk profile. An immediate release tablet formulation (CYT-0387 tablet) was developed for further clinical evaluation. The relative bioavailability of CYT-0387 tablet vs capsule was evaluated in this study to identify Phase 3 dose of CYT-0387 tablet. CYT-0387 tablet (100 to 300 mg) vs capsule (300 mg) pharmacokinetics (PK) after a single dose was evaluated in healthy subjects. CYT-0387 tablet PK at supratherapeutic doses (400 and 800 mg), under fed and fasted conditions, and with an acid reducing agent (i.e., omeprazole) was also evaluated. Intensive PK sampling occurred up to 36 hours postdose. Safety was monitored throughout the study. A parametric analysis of variance (ANOVA) using a mixed-effects model was used to fit to the natural logarithmic transformation of PK parameters (AUC and Cmax). The 90% confidence intervals were constructed for the ratio of geometric means of CYT-0387 tablet PK at 100, 150, 200 and 300 mg vs CYT-0387 capsule 300 mg, using equivalence bounds of 70% to 143% for AUC and Cmax. A similar approach was used to assess the effect of food and omeprazole.

dose proportionality of plasma exposures: less-than-dose-proportionally
Compound: N#CCNC(=O)c1ccc(-c2ccnc(Nc3ccc(N4CCOCC4)cc3)n2)cc1 [CYT-0387, N-(cyanomethyl)-4-(2-(4-morpholinophenylamino)pyrimidin-4-yl)benzamide]
